The text below walks through data of patent US9579322B2, “Methods for treating neurologic disorders” (EIP Pharma, LLC, priority 2014, dated 2017).

Data set [1] deals with cognitive defects in aged rats. Description: Morris water maze in aged rats. In kind it is in vivo, Fischer rats. As to the method:
Altogether 60 female aged (20-24 months) and 15 young adult female Fischer Rats (2-3 months) were used for the experiment. Rats were treated with oral gavage twice-a-day until the sampling (23 days) with vehicle or VX-745 0.5, 1.5 or 4.5 mg/kg. Learning and memory deficits were analyzed with Morris water maze (MWM) one week after starting the treatment.
All animal experiments were carried out according to the National Institute of Health (NIH) guidelines for the care and use of laboratory animals, and approved by the National Animal Experiment Board, Finland. Altogether 60 female aged (20-24 months) and 15 young (2-3 months) adult female Fischer rats (Charles River, France) were used for the experiment. Animals were housed at a standard temperature (22±1° C.) and in a light-controlled environment (lights on from 7 am to 8 pm) with ad libitum access to food and water. Animals were grouped as follows: • Group 1: 15 Aged Rats treated with Vehicle p.o. BID • Group 2: 15 Aged Rats treated with VX-745 (0.5 mg/kg) p.o. BID • Group 3: 15 Aged Rats treated with VX-745 (1.5 mg/kg) p.o. BID • Group 4: 15 Aged Rats treated with VX-745 (4.5 mg/kg) p.o. BID • Group 5: 15 Young adult control rats treated with Vehicle p.o. BID Drug Delivery and Rat Identification
The rats were assigned to the treatment groups equally based on their body weight and visible platform pre-training performance to ensure that both good and poor learners were equally present in all treatment groups. The treatment was given by oral gavage twice-a-day until the sampling. Vehicle was 1% Pluronic F108 and dosing volume was 5 ml/kg. Administration of vehicles and test compounds was done at 7-9 am and 3-5 pm on the pre-testing phase. On the days of behavioral testing, the treatment was given minimum 1 hour prior to first test trial. Test compounds were formulated and stored according to the instructions provided by the sponsor. The rats were marked accordingly with permanent marker to the tail. Records were kept about treatment groups and daily treatment times.
Water maze task was originally designed by Morris et al. (J Neurosci Methods. 1984; 11: 194 47-60). Testing was performed in a large dark-colored tank (200 cm in diameter) filled with clear water at a temperature of 25.0±1.0° C. A submerged platform (square platform: 10×10 cm; 1.5 cm below water surface) was placed in the middle of the of the NW quadrant. The starting locations, which were labeled N, NE, E, SE, S, SW, W, NW, were located arbitrarily on the pool rim. The rats were lowered into the pool with their nose pointing toward the wall at one of the starting points. The release point adjacent to platform location (NW) was not used.
Before the compound treatment was started, the visible platform pre-training was performed to determine whether any non-cognitive performance impairments (e.g. visual impairments and/or swimming difficulties) were present, which might affect performance on the place or probe trials. After the visible platform pre-training was completed, the data was analyzed and the rats were assigned to the different treatment groups based on their pre-training performance. This procedure was performed to ensure that each treatment group consisted equally both good and poor performers in the cued version of the water maze task.
Acquisition training—weeks 1 (days 8-11) & 2 (days 15-18): After completion of cued trials, acquisition (place) trials were executed to determine the rat's ability to learn the spatial relationship between distant cues and the submerged escape platform which remained in the same location for all place trials. The starting points were randomized (NW is not used). The rats received four trials (15 min apart, 60 s maximum for each trial) each day for 4 days/week. Latency and path length (distance) were evaluated.
Probe trial (day 19): A single probe trial was conducted 24 hours after the last place trial to evaluate memory retention. […]

The conditions of data set [2]: cited from earlier work.
Data set [3] can be described thus: Plasma concentration by LC-MS/MS 1 hour post dosing. In kind it is in vivo, Fischer rats. As to the method:
(§1) The primary objective of this study was to investigate whether pre-treatment with compound VX-745 alleviates cognitive defects in aged rats. Plasma concentration of VX-745 was determined with LC-MS/MS at the end of the study from samples collected 1 hour post dosing. In addition, protein levels of PSD95 in ventral cortex and hippocampus, and levels of IL-1β in the hippocampus were analyzed by specific ELISA assays to evaluate the potential anti-inflammatory effects of VX-745 in the brain
(§2) One hour after the last vehicle or VX-745 morning dosing, the animals (10 per dosing group) were deeply anesthetized with pentobarbital and blood samples were collected by cardiac puncture. 500 μl of blood was collected into EDTA microtubes, centrifuged, and plasma collected. The brains were perfused with heparinized saline, and the brains were collected. Right hemisphere was post-fixed by immersion in 4% PFA in 0.1 M PB for 24 h. After a brief wash with phosphate buffer, the hemisphere was cryoprotected in 30% sucrose in PB for 2-3 days, after which it was frozen on liquid nitrogen and stored at −80° C. for optional future immunohistochemical analysis. Left hemisphere was dissected to ventral and dorsal cortex, hippocampus and remaining brain fraction and fresh frozen on dry ice.
Plasma samples were processed using acetonitrile precipitation and then analyzed for VX745 drug concentration by LC-MS/MS

The next data set has as its system IL-1β. Description: IL-1β ELISA of hippocampus extracts. In kind it is in vivo, Fischer rats. As to the method: as §1
as §2, with “Left hemisphere was dissected to ventral and dorsal cortex, hippocampus and remaining brain fraction and fresh frozen on dry ice.” left out
Cortex and hippocampal soluble extracts were analyzed for PSD95 content using an ELISA kit (Cusabio Biotech Ltd., #CSB-EL006938RA, Lot 031154387), while the levels of Il-1β were analyzed only from hippocampus (R&D Systems, #RLB00, Lot 308544).

Data set [4] deals with cytokine (IL-1β or TNFα) production in whole blood. The note with it: inhibition of cytokine production (anti-inflammatory activity); cited from earlier work.
A further data set relates to knee degeneration. The note with it: rats, 50 mg/kg, compared to control animals; cited from earlier work.

In the case of VX-745, the “MWM distance at day 17” value in data set [1] (1.5 mg/kg p.o. BID versus vehicle-treated aged rats, p=0.0.019) is given as “statistically significant better performance”. Moreover, the “MWM change in latency from first test day to last test day” value in data set [1] (1.5 mg/kg p.o. BID versus vehicle-treated aged rats, p=0.007) is on record as “performed significantly better”. The “MWM change in distance from first test day to last test day” value in data set [1] (1.5 mg/kg p.o. BID versus vehicle-treated aged rats, p=0.012) was “performed significantly better”. The “MWM latency at day 17” value in data set [1] (1.5 mg/kg p.o. BID versus vehicle-treated aged rats, p=0.013) is “statistically significant better performance”. In addition, in data set [1] (1.5 mg/kg p.o. BID, about equal to young vehicle-treated rats on Day 17), the “MWM latency and distance, comparison of dose groups” value is given as “greatest effect”. The “MWM swim time and distance over sequential testing” value in data set [1] (VX-745-treated aged rats, p.o. BID) was “greater progressive shortening of swim time and distance”. Further, the “MWM probe trial parameters (day 19)” value in data set [1] (time in target quadrant and annulus, platform crosses) was “no positive or negative effects”. Besides, the “blood brain barrier penetration” value in data set [2] (animals) is listed as “known to penetrate the blood brain barrier (BBB)”. In addition, in data set [2] (brain versus plasma), the “brain concentrations relative to plasma” value was 1.7 times. For the same substance, the “plasma drug concentration relative to concentrations needed for IL-1β inhibition” value is reported as “reached drug concentrations required for blocking IL-1β signaling” in data set [3] (1.5 mg/kg) and “reached concentrations exceeding whole blood IC50 for IL-1β production” in data set [3] (4.5 mg/kg). For the same substance, in data set [3] (0.5, 1.5 and 4.5 mg/kg p.o. BID, aged rats), the “plasma drug levels one hour after last dose” value is “increased in a dose proportional manner”. Moreover, the “IL-1β levels in the hippocampus” value with IL-1β (1.5 mg/kg) is recorded as “no evident effects”; in the data set with IL-1β (4.5 mg/kg, p=0.038 Mann-Whitney, similar to young rats), “lower relative to the aged vehicle-treated group”. Besides, in data set [4], the “whole blood IC50” value was 0.065 to 0.08 µg/mL. The “inhibition of knee degeneration” value with knee degeneration is reported as “statistically significant inhibition of knee degeneration”.
